Results as given in patent publication US20040258652A1, “Hair treatment compositions and hair after-treatment compositions for protection against damage by chemical treatment and for the repair of already damaged hair comprising as active substances alkylguanidine compounds” (GOLDSCHMIDT AG, priority 2003, published 2004).

Tests used:
[1] = Force for the extension of individual damaged hairs by 15% before and after treatment (DiaStron Mtt670); set-up: species or system human; conditions: hair rinse A with 2.0% by weight of compound, pH 5, 30 min immersion, permanently waved and bleached Euro hair, measured wet, difference of 15% extension forces after and before treatment, at least 30 measurements
Experimental: Euro hair (hair from Europeans), left natural.
Preliminary Damage to the Hair
1×each permanent waving and bleaching using commercially available products.
Treatment of the damaged hair:
The damaged hair was treated with the exemplary formulations.
For each test formulation, 30 damp individual hairs were measured. The experimental procedure was as follows:
1. The predamaged hairs were wetted with water and using the fully automatic device Mtt670 from DiaStron the force was measured which was necessary for 15% extension.
2. For recovery, the hairs were immersed for at least 2 h in a water bath.
3. The hairs were then immersed for 30 min in the test formulation and then each hair was rinsed for about 7 s under running water.
4. The hairs were left overnight (=12 h) to dry in air.
5. The force which was necessary in order to extend the treated hair by 15% was again measured as described above, after wetting with water.
6. The difference between the 15% extension forces before and after treatment with the test formulation was calculated and used as a measure of the improvement in the mechanical resistivity of the damaged hairs by the alkylguanidine compounds.

[2] = Determination of the protein loss of predamaged hair (extraction with Na lauryl ether sulfate, UV absorption at 295 nm); set-up: species or system human; conditions: hair rinse of Tab. 3 with 2.0% active, pH 5.0, 30 min; predamaged hair (permanently waved and bleached); extraction with 8% Na lauryl ether sulfate 3 h at room temperature; at least three measurements
From the text: The more severely damaged the hair, e.g., by permanent waving or bleaching, the higher the concentration of water-soluble protein fragments/peptides in the hair which can be extracted with water or surfactants. Extraction with surfactants simulates the washing of the hair by means of a shampoo. Also during hair washing, damaged hair loses more peptides than healthy hair.
For illustration, the hair was predamaged. For this, the hair was permanently waved and bleached 1×each
The predamaged strands of hair (weight: about 4 g) were immersed in the test formulation (time of action: 30 min) and then rinsed off for 1 min under running tap water (T=35° C.).
They were then left to dry in the air for 12 hours.
Determination of the Protein Loss:
About 0.5 g of hair+about 15 ml of Na lauryl ether sulfate (8%) were shaken at room temperature for 3 h. The solution was subsequently decanted and centrifuged. The protein concentration of the solution was then determined photometrically by measurement of the UV absorption at 295 nm. A keratin hydrolysate was used as a standard (M=1000, Promois WK-H, Seiwa Kasei).

## CC(=O)O.CCCCN(CCCC)C(=N)N [HSP A where R^1 = C4; R^2 = C4; acetate, N,N-dibutylguanidinium acetate]
[1]; Table 2B
  Force 15%after force 15%before: 2.16 mN

## CC(O)C(=O)O.CCCCCCCCNC(=N)N [HSP A where R^1 = H; R^2 = C8; lactate, octylguanidinium lactate]
[1]; Table 2B
  Force 15%after force 15%before: 3.65 mN

## CC(=O)O.CCCCCCCCNC(=N)N [HSP A where R^2 = C8, octylguanidinium acetate]
[1]; Table 2A
  Force 15%after force 15%before: 3.51 mN
[2]
  Protein loss: 26.8 mg/g of hair

## CC(=O)O.CC(=O)O.N=C(N)NCCCCCCNC(=N)N [hexane-1,6-diguanidinium acetate]
[1]; Table 2B
  Force 15%after force 15%before: 3.45 mN
